What was measured:
Type in all cases: cell-based, human
MCF-7 = experiment: MTT anti-proliferative assay on MCF-7; conditions: for IC50: MTT, 48 hours treatment, mean ± SD (n = 2)
Description: All synthesized molecules were tested for their anticancer activity using the MTT assay protocol against the murine mammary carcinoma cell line (4T1), the human breast cancer (MCF-7), and the prostatic small cell carcinoma (PC-3). These compounds were then assessed for their IC50 determination at various concentrations. According to this finding, all synthesized compounds have the ability to inhibit the proliferation of a variety of cancer cell lines. […] It is more biased for MCF-7 cells over other cancer cells tested. Further, we contemplated conducting additional research to assess their anti-cancer effectiveness and mechanism (Fig. 3).
The mouse triple-negative breast cancer cell line (4T1), a human luminal A breast cancer cell line (MCF-7), a human prostate cancer cell line (PC-3), and a normal human embryonic kidney cell line (HEK-293) were procured from the National Center for Cell Science (NCCS, Pune, India). Dulbecco's Modified Eagle Medium (DMEM) (Himedia Laboratories Pvt Ltd, Mumbai, India) was used to cultivate MCF-7, 4T1, PC-3, and HEK-293 cells. All the mentioned cell lines were cultured in Dulbecco's Modified Eagle Medium (DMEM) supplemented with 10% heat-inactivated fetal bovine serum (Himedia Laboratories Pvt Ltd, Mumbai, India) and 1% antibiotic (Pen strep: A001), Himedia Laboratories Pvt Ltd, Mumbai, India. Cells were grown in a humidified environment with 5% CO2 at 37 °C. The experiment was performed using the yellow dye MTT [3-(4,5-dimethylthiazol-2-yl)-2, 5-diphenyltetrazolium bromide].
The MTT assay protocol was used to determine the IC50 values of the final compounds against different types of cancer cell lines and their selectivity over normal human cell lines. Dilutions of various concentrations were made from the compounds' DMSO stock solutions in the appropriate media. With a control solution of less than 1% DMSO in the appropriate media, dilutions from 200 μM to 0.781 μM concentrations were prepared using the serial dilution method. Cells were subcultured in their respective complete media according to the ATCC protocol before being seeded on a sterile 96-well plate with around 100 μL per well and a cell density of about 1 × 10^4 cells per well and incubated overnight. The medium was aspirated the following day, and adherent cells were treated with the respective concentrations 200 μM to 0.781 μM. The cells were then cultured for 48 hours in presence of compounds in the growth medium. The medium was aspirated post-treatment, and 100 μL of a 5 mg mL^−1 MTT solution in phenol red-free media was added. This mixture was then incubated for around 3 hours to check for the production of formazan crystals. The MTT solution was withdrawn, and 150 μL of DMSO was added to the wells to dissolve the generated crystals. The absorbance was measured at 570 nm and 650 nm. The percent cell viability was calculated for the IC50 values using GraphPad Prism™ version 8.0.1, and the results were shown as a dose–response curve.

MCF-7 cells [1] = experiment: Annexin-V/FITC-PI apoptosis assay (flow cytometry); conditions: MCF-7, 48 h, at in vitro IC50
Description: Several studies have reported that anticancer drug molecules employ their cytotoxicity induced cell death via apoptotic pathways. […] These findings imply that the programmed cell death mechanism generated by the lead compound 2g causes considerable apoptosis in cancer cells.
In MCF-7 cells, an apoptosis assay was done using a TACs/Annexin V kit from Biolegend, USA. MCF-7 cells were seeded with a density of 5.0 × 10^4 cells per well in a flat-bottomed 12-well plate and allowed overnight for attachment. Following media aspiration, 48 hours of treatment with compound 2g and BG-45 at their in vitro IC50 values in MCF-7 cells were performed in triplicate. The cells were then trypsinized after being rinsed twice with ice-cold PBS. The trypsinized cells were then collected, centrifuged, and the obtained cell pellet was washed with ice-cold PBS before being resuspended in 100 μL of freshly prepared Annexin V reagent, which included 10 μL of 10× binding buffer, 1 μL of FITC, 10 μL of PI, and made up to 100 μL with double distilled water. Following a 30 minutes dark incubation period, these samples were diluted to 500 μL using 400 μL of 1× binding buffer. Following incubation, the samples were examined using flow cytometry (BDAria™ III, BD biosciences).

MCF-7 cells [2] = experiment: Cell cycle analysis (PI, flow cytometry); conditions: MCF-7, 48 hours, at IC50 concentration
Description: In addition to the apoptosis assay, the cell cycle progression of MCF-7 cells was also investigated using the compound 2g. The cell population at different cell cycle phases was assessed using flow cytometry. […] These findings highlight that the lead compound 2g specifically impacts cell cycle regulation in the early phase compared to control and standard compound-treated cells (Fig. 6).
Flow cytometry was used to study the cell cycle of compound 2g and BG-45 using the BDAria™ III, a BD biosciences equipment, and the data was processed using Flow Jo software. For this objective, 5.0 × 10^4 MCF-7 cells were seeded onto 12 well plates and incubated overnight. The media was aspirated the other day, and the treatment was continued for another 48 hours after adding the required concentrations of compound 2g and BG-45 to the aspirated media. Following the treatment, the sample wells were rinsed with ice-cold PBS, trypsinized, and collected as a cell pellet. After two ice-cold PBS washes, the pellet was fixed with a dropwise addition of 70% ice-cold ethanol, which was then gently vortexed to create a single-cell suspension. Overnight, the fixed cells were stored at −20 °C. The samples were then centrifuged, and the resulting cell pellet was resuspended in 500 μL of the staining solution made from 20% w/v RNase, 2% w/v PI, and roughly 0.1% v/v Triton X 100 solution in PBS. The dissolved samples were examined using flow cytometry in the BDAria™ III, BD Biosciences, after being incubated for 30 min at room temperature in the dark.

COc1ccc(-c2noc(-c3cccs3)c2C(F)(F)F)cc1OC [Compound 2g, 3-(3,4-dimethoxyphenyl)-5-(thiophen-2-yl)-4-(trifluoromethyl)isoxazole]
IC50 (MCF-7; Homo sapiens, MCF7, 48 h): 2640 nM | times more active than non-trifluoromethylated analogue 14 (MCF-7; MCF-7 IC50 compared): ~8 times | IC50 (MCF-7): 2630 ± 150 nM | selectivity for MCF-7 cells over HEK-293 (MCF-7; ratio of IC50 values): 30.8 fold | total apoptotic percentage (Q2 and Q4) (MCF-7 cells [1]): 55.3 ± 0.9% | cell population in G0/G1 phase (MCF-7 cells [2]): 68.6% | cell population in G2/M phase (MCF-7 cells [2]): 31.5% | cell population in S phase (MCF-7 cells [2]): 1.11%

Source: article PMC11167338, “Exploring the impact of trifluoromethyl (–CF3) functional group on the anti-cancer activity of isoxazole-based molecules: design, synthesis, biological evaluation and molecular docking analysis” (RSC Advances, 2024)
